In patent US9144241B2, “Synergistic pesticidal compositions and related methods” (Dow AgroSciences LLC, priority 2013, dated 2015):

Test system: diamondback moth, Plutella xylostella
Assay: Diamondback moth bioassay on track-sprayed cabbage plants/leaf discs; synergy by Colby's equation
Format: in vivo
Conditions: single active, second instar larvae, 400 L/Ha spray
Text: The method described in Colby S. R., “Calculating Synergistic and Antagonistic Responses of Herbicide Combinations,” Weeds, 1967, 15, 20-22 was used to determine an existence of synergic effect between the acetyl CoA carboxylase inhibitor compound and the pesticide (I), (II), or any agriculturally acceptable salt thereof in the formulated pesticidal composition.
Three second instar diamondback moth, Plutella xylostella, were infested onto each leaf disc. […] The “Colby's Expected Action” was calculated using Colby's equation as discussed previously.
Three second instar diamondback moth, Plutella xylostella, were infested onto each leaf disc.
The percent control may be determined some time after treatment.

Row | SMILES | % Control Three Days After Treatment (dose rate 0.0015625 weight %) [%] | % Control Three Days After Treatment (dose rate 0.0015625 weight %, listed as spirotetramat) | % Control Three Days After Treatment (dose rate 0.000625 weight %) [%] | % Control Three Days After Treatment (dose rate 0.0025 weight %)
1 | CCOC(=O)OC1=C(c2cc(C)ccc2C)C(=O)N[C@]12CC[C@@H](OC)CC2 [Spirotetramat, cis-3-(2,5-dimethylphenyl)-8-methoxy-2-oxo-1-azaspiro[4.5]dec-3-en-4-yl ethylcarbonate, reference compound] | 0 | no activity | – | –
2 | CCN(C(=O)CCSCCC(F)(F)F)c1cn(-c2cccnc2)nc1Cl [Compound I, N-(3-chloro-1-(pyridin-3-yl)-1H-pyrazol-4-yl)-N-ethyl-3-((3,3,3-trifluoropropyl)thio) propanamide] | – | – | 0 | no activity
3 | CCN(C(=O)CC[S+]([O-])CCC(F)(F)F)c1cn(-c2cccnc2)nc1Cl (centres unmarked) [Compound II, N-(3-chloro-1-(pyridin-3-yl)-1H-pyrazol-4-yl)-N-ethyl-3-((3,3,3-trifluoropropyl)sulfinyl)propanamide] | – | – | 0 | –
